Laboratory results from EP4596561A1, “PHOSPHORUS-CONTAINING COMPOUND, PHARMACEUTICAL COMPOSITION AND USE THEREOF” (Suzhou Genhouse Bio Co., Ltd., priority 2022, dated 2024).
Read-outs that look alike come from different tables or passages of the source. Each block holds one molecule with its values, some of them ahead of it.

Legend:
[1] = Pharmacokinetic test in mice (low dose); type: in vivo, Balb/c mice; conditions: mouse, in vivo
Description: The compounds of the present disclosure were administered to Balb/c mice by single intravenous injection and oral gavage, and the plasma of the mice at each time point was collected. The concentration of the compounds to be tested in BALB/C plasma was detected using the LC-MS/MS analysis method, and pharmacokinetic analysis was performed.
The mixture was vortexed, shaken, and ultrasonicated. The remaining volume of 25% sulfobutylether-β-cyclodextrin (sterilized) was added to prepare the final concentration solution or suspension.
Intravenous injection formulations will be directly administered in animal experiments without filtration. The IV drug preparation vials were disinfected in an infrared sterilization cabinet one day in advance.
Intravenous injection: Administration was performed via the tail vein. After the needle was inserted, the syringe was slowly […].
Gavage: Gavage needle and syringe of an appropriate type were selected. The gavage needle was inserted from the root of the tongue into the esophagus until it reached near the cardia of the stomach, then the drug formulation was injected, and the gavage needle was withdrawn. When disposable plastic gavage needles were used, one needle was used for each group.
At each time point, 60 µL of whole blood was collected from the submandibular vein or tail vein (except for the IV group). The blood sample was added to a pre-cooled anticoagulant blood collection tube containing anticoagulant EDTA-K2 (1 µL, 15% EDTA-K2 solution), placed on wet ice, and centrifuged (3000 g, 4 °C, 10 min) within 1 h. The plasma was immediately collected after centrifugation, transferred to an EP tube, and stored at -90 °C to -60 °C.
Plasma concentration detection: A developed LC-MS/MS method was used to detect the compounds in plasma.
The plasma concentration-time data were analyzed using a non-compartmental model in the Phoenix® WinNonlin® (Version 8.2, Pharsight, Mountain View, CA).

in vivo = conditions: mouse, plasma, po, 200 mg/kg
Description: After adding 5% DMSO, the mixture was vortexed. 15% HS15 was then added, and the mixture was vortexed again. Finally, a 10% aqueous cyclodextrin solution was added, and the resulting mixture was vortexed to prepare the final concentration solution or suspension.

[2] = Saturated solubility in FaSSIF solution; type: physicochemical; conditions: room temperature, stirred overnight
Description: Efficacy Experimental Example 9: Test of Saturated Solubility of Samples in FaSSIF Solution
About 0.21 g of sodium hydroxide, about 2.24 g of sodium dihydrogen phosphate dihydrate, and 3.09 g of sodium chloride were weighed out and dissolved in 500 mL of water, and after dissolution, the pH was adjusted to 6.5 with 1 N sodium hydroxide or 1 N hydrochloric acid.
112 mg of FaSSIF solid was weighed out and placed in a 50 mL volumetric flask, and the buffer described above was added for dissolution. The resulting solution was diluted to volume, mixed well, and left to stand at room temperature for 2 h or more.
Test sample: About 1 mg of the test sample was taken, and 1 mL of FaSSIF solution was added. The mixture was stirred at room temperature overnight and centrifuged, and the supernatant was collected and injected for analysis.
Reference sample solution: About 1.5 mg of the test sample was precisely weighed out and placed in a 50 mL volumetric flask, and DMF was added for dissolution. The resulting solution was diluted to volume and mixed well.
The peak of the main component of the reference sample and the peak of the test sample with the same retention time were integrated, and the concentration thereof in the FaSSIF solution was calculated according to the external standard method.

[3] = tested on: YAP-TEAD transcription complex; assay: YAP-TEAD reporter gene assay (dual luciferase, stably transfected 293T cells); type: cell-based; conditions: Homo sapiens, HEK-293T
Description: YAP-TEAD reporter gene The YAP-TEAD reporter gene assay was performed as follows. Firstly, the 8xGTIIC promoter sequence ([…] GTACTGTTGGTAAA) was constructed into a pGL4.20(luc2-Puro) plasmid, and the TK promoter ([…]) unrelated to the hippo pathway was constructed into a pGL4.78(hRlucCP/Hygro) plasmid, thereby constructing stably transfected 293T cells that can stably and continuously express the transcriptional activity of the YAP-TEAD transcription complex. After selection and identification of individual clones, the clones were grown and maintained in a DMEM medium containing 10% fetal bovine serum, penicillin-streptomycin solution, 1 µg/mL puromycin, and 150 µg/mL hygromycin. To perform reporter gene assays with the compounds to be tested, the well-growing cells described above were plated in a 384-well plate at a cell density of 3000 cells per well, with 90 µL per well. The periphery was sealed with an appropriate amount of PBS to prevent evaporation of water from the peripheral wells. Administration was performed on the next day after the cell plating. The test compounds were added at different concentration gradients, and three replicate wells were set for each concentration point. The compound concentration started at 5 µM and was diluted seven times with a 5-fold gradient. A corresponding negative control group treated with DMSO was also set up. After 24 h of drug treatment, the detection reagents were prepared first. The Dual-Lumi™ Firefly luciferase detection reagent and Dual-Lumi™ Renilla luciferase detection buffer were dissolved and brought to room temperature. […]. According to the amount of 100 µL of Dual-Lumi™ Renilla luciferase detection working solution required for the detection of each sample, an appropriate amount of Dual-Lumi™ Renilla luciferase detection working solution was prepared. […]. The cell culture plate was taken out and allowed to equilibrate at room temperature for 10 min (usually no more than 30 min). Then, 100 µL of Dual-Lumi™ Firefly luciferase detection reagent was added to each well of a 96-well plate (25 µL per well for the 384-well plate), and the mixture was mixed well. The mixture was then incubated at room temperature (about 25 °C) for 10 min to stabilize the luminescent signal, and then chemiluminescence was detected using a multimode microplate reader with a chemiluminescence detection function. Subsequently, the detection of Renilla luciferase began. Firstly, 100 µL of Dual-Lumi™ Renilla luciferase detection working solution was added to each well of a […] (25 µL per well for the 384-well plate), and the mixture was mixed well. The mixture was then incubated at room temperature (about 25 °C) for 10 min to stabilize the luminescent signal. Finally, chemiluminescence was detected using a multimode microplate reader with a chemiluminescence detection function. The obtained data were analyzed using GraphPad Prism 7.0 software. A sigmoidal dose-survival rate curve was plotted using a non-linear regression model, and the IC50 values were calculated.

[4] = tested on: NCI-H2452 (NF2 wide-type); assay: Inhibition of cell proliferation (CellTiter-Lumi); type: cell-based; conditions: Homo sapiens, 72 h + another 72 h treatment
Description: (§1) NCI-H2052 (NF2 mutant), NCI-H226 (NF2 mutant), NCI-H2452 (NF2 wide-type), NCI-H28 (NF2 wide-type), and MSTO-211H (NF2 wide-type) cells were cultured in RPMI 1640 complete media.
(§2) The normally growing cells described above were digested with a trypsin cell-digesting solution, centrifuged, counted, and then plated in a 96-well plate at a density of 1000 cells per well. Administration was performed 24 h after the cell plating. Inhibitors at different concentration gradients were added at 10 µL per well, and three replicate wells were set for each concentration point. The starting concentration was 20 µM and diluted 8 times with a 4-fold gradient. A corresponding negative control group treated with 0.1% DMSO was also set up. After 72 h of drug treatment, the cell culture plate to be tested was taken out of the incubator. The culture medium in the 96-well plate was pipetted, and 190 µL of fresh RPMI 1640 complete medium was added. Another administration was performed, and the cells were cultured for another 72 h. The 96-well plate was taken out and allowed to equilibrate at room temperature for 10 min. […] After shaking for two minutes, the mixture was reacted at room temperature for 10 min. Then, 150 µL of liquid was pipetted from the transparent 96-well plate and transferred to a white 96-well plate for chemiluminescence reading. The background value was subtracted from the value for each well to calculate the cell survival rate. Survival rate (%) = […]. Sample is the chemiluminescence of the drug-treated group, and Vehicle is the […] of the DMSO control group. A sigmoidal dose-survival rate curve was plotted using a non-linear regression model in the GraphPad Prism 7.0 software, and the IC50 values or GI50 values were calculated.

NCI-H28 (NF2 wide-type) = assay: Inhibition of cell proliferation (CellTiter-Lumi); type: cell-based; conditions: Homo sapiens, 72 h + another 72 h treatment
Description: as §1, §2

Compound: CNS(=O)(=O)c1ccc(Nc2ccc(C(F)(F)F)cc2)c(-c2cn(C)cn2)c1 [Comparative compound B3, reference compound]
AUC(0-t) (in vivo): 1040 µM·h
FaSSIF(pH = 6.5) [2]: 14.0 ug/mL

Compound: CNS(=O)(=O)c1cnc(Oc2ccc(C(F)(F)F)cc2)c(-c2cn3c(n2)CCC3)c1 [Comparative compound B4, reference compound]
FaSSIF(pH = 6.5) [2]: 36.2 ug/mL

Compound: CP(C)(=O)c1cnc(Oc2ccc(C(F)(F)F)cc2)c(-c2cn3c(n2)CCC3)c1 [Example 9]
IC50 ([3]; 24 h): 160 nM
MRT ([1]; mice, IV 2 mg/kg): 1.7 h
AUC(0-t) ([1]; mice, IV 2 mg/kg, read-out: AUClast): 5.74 µM·h
clearance ([1]; mice, IV 2 mg/kg, read-out: Cl (converted)): 13.3 mL/min/kg
half-life ([1]; mice, IV 2 mg/kg, read-out: T1/2 (converted)): 1.4 h
MRT ([1]; mice, PO 10 mg/kg): 3.2 h
bioavailability ([1]; mice, PO 10 mg/kg vs IV 2 mg/kg, read-out: F%): 111%
AUC(0-t) ([1]; mice, PO 10 mg/kg, read-out: AUClast): 30.5 µM·h
Cmax ([1]; mice, PO 10 mg/kg, read-out: Cmax): 9.37 µM
half-life ([1]; mice, PO 10 mg/kg, read-out: T1/2 (converted)): 1.9 h

Compound: CP(C)(=O)c1ccc(Nc2ccc(C(F)(F)F)cc2)c(-c2cn3c(n2)CCC3)c1 [Example 21]
IC50 ([3]; 24 h): 7.46 nM

Compound: Cn1cnc(-c2cc(P3(=O)CCOCC3)ccc2Nc2ccc(C(F)(F)F)cc2)c1 [Example 23]
IC50 ([3]; 24 h): 27.4 nM

The next lines start with the values.

bioavailability ([1]; Balb/c): 81%
AUC(0-t) ([1]; Balb/c, iv, 2 mg/kg): 1.24 µM·h
clearance ([1]; Balb/c, iv, 2 mg/kg): 70.8 mL/min/kg
half-life ([1]; Balb/c, iv, 2 mg/kg): 1.4 h
AUC(0-t) ([1]; Balb/c, po, 10 mg/kg): 4.87 µM·h
Cmax ([1]; Balb/c, po, 10 mg/kg): 0.653 µM
half-life ([1]; Balb/c, po, 10 mg/kg): 5.6 h
Compound: CC(C)NC(=O)c1ccc2c(Oc3ccc(C(F)(F)F)cc3)cccc2c1 [Comparative compound B1, reference compound]

AUC(0-t) (in vivo): 902 µM·h
FaSSIF(pH = 6.5) [2]: 16.4 ug/mL
bioavailability ([1]; Balb/c): 87.5%
AUC(0-t) ([1]; Balb/c, iv, 2 mg/kg): 8.75 µM·h
clearance ([1]; Balb/c, iv, 2 mg/kg): 6.03 mL/min/kg
half-life ([1]; Balb/c, iv, 2 mg/kg): 19.6 h
AUC(0-t) ([1]; Balb/c, po, 10 mg/kg): 52.8 µM·h
Cmax ([1]; Balb/c, po, 10 mg/kg): 4.21 µM
half-life ([1]; Balb/c, po, 10 mg/kg): 9.3 h
Compound: CNS(=O)(=O)c1ccc2c(Oc3ccc(C(F)(F)F)cc3)cccc2c1 [Comparative compound B2, reference compound]

IC50 [4]: > 1250 nM
IC50 (NCI-H28 (NF2 wide-type)): 958 nM
IC50 ([3]; 293T reporter cells, 24 h of drug treatment, read-out: IC50): 11.8 nM
Compound: Cn1ccc(-c2cc(P(C)(C)=O)cnc2Nc2ccc(C(F)(F)F)cc2)n1 [Example 17]

IC50 [4]: > 20000 nM
IC50 (NCI-H28 (NF2 wide-type)): > 20000 nM
Compound: CCc1ccc(Oc2cccc3cc(P(C)(C)=O)ccc23)cc1 [Example 25]

IC50 [4]: > 5000 nM
IC50 (NCI-H28 (NF2 wide-type)): > 5000 nM
Compound: CP(C)(=O)c1ccc2c(Oc3ccc(C4CC4)cc3)cccc2c1 [Example 26]

IC50 [4]: > 20000 nM
IC50 (NCI-H28 (NF2 wide-type)): > 5000 nM
Compound: CP(C)(=O)c1ccc2c(Oc3ccc(OC(F)(F)F)cc3)cccc2c1 [Example 27]
